This passage reports IC50 results from patent US12060349B2, “Glucosylceramide synthase inhibitors” (Genzyme Corporation, priority 2012, dated 2024).

Like-named read-outs stand apart in the source and are kept apart here. Bounds are passed on as bounds.

Assay [1] concerns the target T1, glucosylceramide synthase (Homo sapiens, UniProt Q16739).
T1 construct: Microsomes were isolated from A375 human melanoma cells; endogenous in cells; host or cells: A375 human melanoma cells (microsomal fraction, 100,000 g pellet)
T1 sequence (Q16739 1-394): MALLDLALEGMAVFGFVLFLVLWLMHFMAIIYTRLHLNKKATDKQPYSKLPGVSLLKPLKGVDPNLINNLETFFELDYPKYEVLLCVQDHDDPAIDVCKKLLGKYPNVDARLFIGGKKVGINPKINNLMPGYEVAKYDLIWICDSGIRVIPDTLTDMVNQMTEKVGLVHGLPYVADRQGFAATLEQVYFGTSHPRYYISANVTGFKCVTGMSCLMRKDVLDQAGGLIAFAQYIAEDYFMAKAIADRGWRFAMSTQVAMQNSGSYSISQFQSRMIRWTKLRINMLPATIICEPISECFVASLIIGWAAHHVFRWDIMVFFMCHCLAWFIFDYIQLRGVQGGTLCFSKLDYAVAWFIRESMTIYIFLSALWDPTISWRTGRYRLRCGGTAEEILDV
Kind of assay: microsomal assay measuring conversion of ceramide to glucosylceramide by HPLC (GCS IC50). In kind it is biochemical. Conditions: concentration causing 50% inhibition of glucosylceramide synthase activity. As for the experimental part: Inhibition of glucosylceramide synthase activity for certain compounds of the invention were measured with 1) a microsomal assay that directly measures the conversion of ceramide to glucosylceramide by HPLC and 2) second, cell based, phenotypic assay that monitors cell surface expression of the downstream lipid GM3 by antibody mediated immunofluorescence. The cell based assay was performed in two different cell types, B16 and C32. Cell viability was also assessed in the second, cell-based assay.
The “Compound Number” in the table corresponds to the compound disclosed in the Example of the same number. The results of the microsomal assay are expressed as “GCS IC50”, which represents the concentration of the compound causing 50% inhibition of glucosylceramide synthase activity. The results of the cell based assays (performed in two different cell systems, i.e. B16 mouse melanoma or C32 human melanoma cells) are expressed as “GM3 B16 IC50” or “GM3 C32 IC50” for the B16 assay and the C32 assay, respectively. These values represent the concentration of the compound causing 50% inhibition of GM3 expression on the cell surface. The results of the viability assays are expressed as “Viability, B16 IC50” or “Viability, C32 IC50”, respectively. These values represent the concentration of the compound causing 50% cell death. Values greater than 10 represent a lack of cell death.

The test system of assay [2] is GM3 expression on the cell surface, B16 mouse melanoma cells. Kind of assay: cell based phenotypic assay, cell surface GM3 by antibody mediated immunofluorescence, B16 (GM3 B16 IC50). Conditions: 50% inhibition of GM3 expression on the cell surface. As for the experimental part: (§1) The cell based assay was performed in two different cell types, B16 and C32. Cell viability was also assessed in the second, cell-based assay.
(§2) The “Compound Number” in the table corresponds to the compound disclosed in the Example of the same number. […] The results of the cell based assays (performed in two different cell systems, i.e. B16 mouse melanoma or C32 human melanoma cells) are expressed as “GM3 B16 IC50” or “GM3 C32 IC50” for the B16 assay and the C32 assay, respectively. […] The results of the viability assays are expressed as “Viability, B16 IC50” or “Viability, C32 IC50”, respectively. These values represent the concentration of the compound causing 50% cell death. Values greater than 10 represent a lack of cell death.

Assay [3] concerns GM3 expression on the cell surface, C32 human melanoma cells. Nature of the assay: cell based phenotypic assay, cell surface GM3 by antibody mediated immunofluorescence, C32 (GM3 C32 IC50). Conditions: 50% inhibition of GM3 expression on the cell surface. As to the method: as §1, §2
For the next assay, the system named is B16 mouse melanoma cells. Nature of the assay: cell viability in the B16 cell-based assay (Viability, B16 IC50). The note with it: concentration causing 50% cell death, values greater than 10 represent a lack of cell death, read-out: Viability, B16 IC50. As for the experimental part: as §1, §2
The subject of the next assay is C32 human melanoma cells. Kind of assay: cell viability in the C32 cell-based assay (Viability, C32 IC50). As for the experimental part: as §1, §2
Setting [4] is: B16 mouse melanoma cells, read-out: GM3 B16 IC50.
Where [5] appears, read: C32 human melanoma cells, read-out: GM3 C32 IC50.
The mark [6] stands for this setting: C32 cells; concentration causing 50% cell death; values greater than 10 represent a lack of cell death; read-out: Viability, C32 IC50.
The mark [7] stands for this setting: Homo sapiens, C32, C32 cells; concentration causing 50% cell death; values greater than 10 represent a lack of cell death; read-out: Viability, C32 IC50.

As a reminder, the IC50 is the midpoint of a concentration-inhibition curve.

“1-(4-(4-(2-Methoxyethoxy)phenyl)-2-methylbut-3-yn-2-yl)-3-(3-propylquinuclidin-3-yl)urea [Example 330]”: the IC50 is 104 nM in assay [1]; 203 nM in assay [2] (setting [4]); 6.41 nM in assay [3] (setting [5]); not below 10000 nM in the assay on B16 mouse melanoma cells (B16 cells); 3160 nM in the assay with C32 human melanoma cells (setting [6]).
In the case of “1-(4-(4-Fluorophenoxy)pyrimidin-2-yl)-N-(3-methylquinuclidin-3-yl)piperidine-4-carboxamide [Example 121]”, the IC50 in assay [1] turned out to be 1.33 nM; in assay [2] (setting [4]), 26.3 nM; in assay [3] (setting [5]), 0.093 nM; in the assay on B16 mouse melanoma cells (B16 cells) it was 7650 nM; in the assay on C32 human melanoma cells (setting [6]), 100 nM.
In the case of “1-(5-Fluoro-4-(4-(2-methoxyethoxy)phenyl)pyrimidin-2-yl)-N-(3-methylquinuclidin-3-yl)piperidine-4-carboxamide [Example 57]”, the IC50 in assay [1] was 2.41 nM; in assay [2] (setting [4]) it was 69.3 nM; in assay [3] (setting [5]), 0.169 nM; in the assay on B16 mouse melanoma cells (B16 cells), not below 10000 nM; in the assay with C32 human melanoma cells (setting [6]) it was 1000 nM.
Regarding “1-Azabicyclo[3.2.2]nonan-3-yl 4-(4′-fluoro-[1,1′-biphenyl]-3-yl)piperazine-1-carboxylate [Example 25]”, the IC50 turned out to be 3480 nM in assay [1]; 4860 nM in assay [2] (setting [4]); 9380 nM in assay [3] (setting [5]); 5390 nM in the assay with B16 mouse melanoma cells (B16 cells); 5410 nM with C32 human melanoma cells (setting [6]).
“2-(3-(3-(Methylcarbamoyl)phenoxy)phenyl)propan-2-ylcarbamate [Example 295]”: the IC50 is 1020 nM in assay [1]; 1750 nM in assay [2] (setting [4]); 147 nM in assay [3] (setting [5]); not below 10000 nM with B16 mouse melanoma cells (B16 cells); not below 10000 nM in the assay with C32 human melanoma cells (setting [6]).
For the molecule “3-Ethyl-N-(4-methyl-1-azabicyclo[3.2.2]nonan-4-yl)-4-(4-phenylpyrimidin-2-yl)piperazine-1-carboxamide [Example 143]”, the half-maximal inhibitory concentration (IC50) in assay [1] came out at 1.79 nM; in assay [2] (setting [4]) it was 52.3 nM; in assay [3] (setting [5]) it was 0.304 nM; in the assay with B16 mouse melanoma cells (B16 cells), 3110 nM; in the assay with C32 human melanoma cells (setting [6]), 3160 nM.
Regarding “4-(4-(4-Fluorophenyl)pyrimidin-2-yl)-3-methyl-N-(4-methyl-1-azabicyclo[3.2.2]nonan-4-yl)piperazine-1-carboxamide [Example 146]”, the IC50 in assay [1] stood at 16.6 nM; in assay [2] (setting [4]), 110 nM; in assay [3] (setting [5]), 0.559 nM; in the assay with B16 mouse melanoma cells (B16 cells) it was 6370 nM; in the assay with C32 human melanoma cells (setting [6]), 1000 nM.
For “4-(4′-Fluoro-[1,1′-biphenyl]-3-yl)-N-(4-methyl-1-azabicyclo[3.2.2]nonan-4-yl)piperazine-1-carboxamide [Example 22]”, the IC50 worked out at 613 nM in assay [1]; 629 nM in assay [2] (setting [4]); 41.1 nM in assay [3] (setting [5]); 7060 nM with B16 mouse melanoma cells (B16 cells); 1000 nM in the assay on C32 human melanoma cells (setting [6]).
On to “4-([1,1′-Biphenyl]-3-yl)-3-methyl-N-(4-methyl-1-azabicyclo[3.2.2]nonan-4-yl)piperazine-1-carboxamide [Example 32]”, for which the IC50 stood at 544 nM in assay [1]; 462 nM in assay [2] (setting [4]); 46.5 nM in assay [3] (setting [5]); 7290 nM in the assay with B16 mouse melanoma cells (B16 cells); 3160 nM in the assay with C32 human melanoma cells (setting [6]).
With `C[C@@H]1CN(C(=O)NC2(C)CCN3CCC2CC3)C[C@H](C)N1c1nccc(-c2ccccc2)n1` (relative stereo) [Example 147, cis-3,5-Dimethyl-N-(4-methyl-1-azabicyclo[3.2.2]nonan-4-yl)-4-(4-phenylpyrimidin-2-yl)piperazine-1-carboxamide], the IC50 in assay [1] is 5.45 nM; in assay [2] (Mus musculus, B16 mouse melanoma cells, read-out: GM3 B16 IC50) it was 96 nM; in assay [3] (Homo sapiens, C32 human melanoma cells, read-out: GM3 C32 IC50), 1 nM; with B16 mouse melanoma cells (Mus musculus, B16, B16 cells) it was 3510 nM; in the assay on C32 human melanoma cells (setting [7]) it was 1000 nM.
Take `CC1(NC(=O)C2CCN(c3nccc(-c4ccc(F)cc4)n3)CC2)CCN2CCC1CC2` (single isomer, unassigned) [Example 42, 1-(4-(4-Fluorophenyl)pyrimidin-2-yl)-N-(4-methyl-1-azabicyclo[3.2.2]nonan-4-yl)piperidine-4-carboxamide]: the IC50 in assay [1] is 94.1 nM; in assay [2] (setting [4]), 918 nM; in assay [3] (setting [5]), 9.82 nM; in the assay with B16 mouse melanoma cells (Mus musculus, B16, B16 cells) it was 7660 nM; in the assay with C32 human melanoma cells (setting [7]), 4640 nM.
As to `CC1(NC(=O)C2CCN(c3nccc(-c4ccc(F)cc4)n3)CC2)CCN2CCC1CC2` (single isomer, unassigned) [Example 43, 1-(4-(4-Fluorophenyl)pyrimidin-2-yl)-N-(4-methyl-1-azabicyclo[3.2.2]nonan-4-yl)piperidine-4-carboxamide], the IC50 was 1.25 nM in assay [1]; 6.54 nM in assay [2] (setting [4]); 0.0655 nM in assay [3] (setting [5]); 7140 nM with B16 mouse melanoma cells (B16 cells); 8920 nM with C32 human melanoma cells (setting [6]).
`CC1(NC(=O)C2CCN(c3cncc(-c4ccc(F)cc4)n3)CC2)CCN2CCC1CC2` (single isomer, unassigned) [Example 47, 1-(6-(4-Fluorophenyl)pyrazin-2-yl)-N-(4-methyl-1-azabicyclo[3.2.2]nonan-4-yl)piperidine-4-carboxamide]: the IC50 is 258 nM in assay [1]; 2190 nM in assay [2] (setting [4]); 50 nM in assay [3] (setting [5]); 7830 nM in the assay with B16 mouse melanoma cells (Mus musculus, B16, B16 cells); 3160 nM with C32 human melanoma cells (setting [6]).
With `CC1(NC(=O)C2CCN(c3cncc(-c4ccc(F)cc4)n3)CC2)CCN2CCC1CC2` (single isomer, unassigned) [Example 48, 1-(6-(4-Fluorophenyl)pyrazin-2-yl)-N-(4-methyl-1-azabicyclo[3.2.2]nonan-4-yl)piperidine-4-carboxamide], the IC50 in assay [1] amounted to 1.61 nM; in assay [2] (setting [4]), 47.7 nM; in assay [3] (setting [5]), 0.096 nM; in the assay on B16 mouse melanoma cells (B16 cells), 7760 nM; in the assay on C32 human melanoma cells (setting [6]), 5.17 nM.
As for `COCCOCc1ccc(-c2nc(N3CCC(F)(C(=O)NC4(C)CCN5CCC4CC5)CC3)ncc2F)cc1` (single isomer, unassigned) [Example 78, 4-Fluoro-1-(5-fluoro-4-(4-((2-methoxyethoxy)methyl)phenyl)pyrimidin-2-yl)-N-(4-methyl-1-azabicyclo[3.2.2]nonan-4-yl)piperidine-4-carboxamide], the IC50 in assay [1] stood at 64.7 nM; in assay [2] (setting [4]), 3120 nM; in assay [3] (setting [5]), 4.87 nM; with B16 mouse melanoma cells (Mus musculus, B16, B16 cells), 3540 nM; in the assay on C32 human melanoma cells (setting [6]), 1000 nM.
Consider `CCOc1ccc(-c2cccc(C(C)(C)NC(=O)OC3CN4CCC3CC4)c2)nn1` (stereo not shown) [Example 318, Quinuclidin-3-yl (2-(3-(6-ethoxypyridazin-3-yl)phenyl)propan-2-yl)carbamate], for which the IC50 in assay [1] was 1460 nM; in assay [2] (Mus musculus, read-out: GM3 B16 IC50, B16 mouse melanoma cells), 635 nM; in assay [3] (Homo sapiens, read-out: GM3 C32 IC50, C32 human melanoma cells), 69.9 nM; in the assay on C32 human melanoma cells (read-out: Viability, C32 IC50; C32 cells; concentration causing 50% cell death; values greater than 10 represent a lack of cell death), 1000 nM.
